Measured values taken from PMC9545474, “Anticancer Water‐Soluble Organoruthenium Complexes: Synthesis and Preclinical Evaluation” (Chembiochem, 2022).

Key:
[1] = test system: H460 non-small-cell lung cancer cells; experiment: 24-hour MTT chemosensitivity assay with 72-hour recovery, H460; format: cell-based; details: for IC50: 24 h exposure, 72 h recovery, MTT, read-out: IC50 values ±SD, H460; for Selectivity index (SI), H460: mean IC50 PNT2 / mean IC50 H460
Protocol: (§1) Chemosensitivity studies were undertaken using a 24‐hour MTT assay, with a 72‐hour recovery period. The IC50 values were determined against ovarian A2780 (cisplatin‐sensitive) and A2780cisR (cisplatin‐resistant) cancer cell lines, non‐small‐cell lung H460 cancer cell line, and normal prostate PNT2 cell line, exposed to each of compounds 4–8, cisplatin or the phosphine ligands (Table 1 and S4, Figures S29–S31). […] This is unusual but can be related to solubility issues not visible for the naked eye and thus hindering its activity in cells. […] When tested on their own, the phosphine ligands are not active below 100 μM for all four cell lines. […] This therefore prevents comparison with the well‐known RAPTA family, and more especially with RAPTA−C which bears a PTA ligand and a p‐cym ligand, making this complex relatively similar in terms of geometry with complex 4.[21] […] This confirms the interest of the sulfur coordinating atom in terms of cytotoxicity for organoruthenium complexes.[23]
(§2) Chemosensitivity assay: In vitro chemosensitivity tests were performed against A2780, A2780cisR, PNT2 and H460 cells. Cells were routinely maintained as monolayer cultures in RPMI 1640 medium supplemented with 10 % foetal calf serum, penicillin (100 I.U./mL) and streptomycin (100 μg/mL), sodium pyruvate (1 mM) and L‐glutamine (2 mM). For chemosensitivity studies, cells were seeded in 96‐well plates at a concentration of 7.5×10^3 cells per well and the plates were incubated for 24 h at 37 °C and a 5 % CO2 humidified atmosphere prior to drug exposure.
(§3) Complexes were dissolved in either DMSO (complexes 4, 5, and 8) or PBS (complexes 6 and 7) to provide stock solutions which were further diluted with media to provide a range of final concentrations. Drug‐media solutions were added to cells (the final concentration of DMSO was less than 1 % (v/v) in all cases) and incubated for 24 h at 37 °C and a 5 % CO2 humidified atmosphere. The drug‐media solution was removed from the wells and the cells were washed with PBS (100 μL, twice) and 200 μL of complete fresh media were added to each well. The plates were further incubated for 72 h at 37 °C and a 5 % CO2 humidified atmosphere to allow for a period of recovery. 3‐(4,5‐dimethylthiazol‐2‐yl)‐2,5‐diphenyltetrazolium bromide (MTT) (40 μL, 2.5 mg/mL) was added to each well and plates were incubated for 2 h. All solutions were then removed and 100 μL of DMSO was added to each well in order to dissolve the purple formazan crystals. A Thermo Scientific Multiskan EX microplate photometer was used to measure the absorbance in each well at 570 nm. Cell survival was determined as the absorbance of treated cells divided by the absorbance of controls and expressed as a percentage. The IC50 values were determined from plots of % survival against drug concentration. Each experiment was repeated in triplicates of triplicates and a mean value was obtained and stated as IC50 (μM) ± SD. Untreated cells were used as a negative control, and cells treated with cisplatin were used as a positive control.

[2] = test system: A2780 cells; experiment: JC-10 mitochondrial membrane potential assay by flow cytometry; format: cell-based, human; details: A2780, 24 h, complexes at IC50, cisplatin 6.5 µM
Excerpt: A membrane potential sensitive fluorescent probe JC‐10 was used to determine whether the apoptosis induced by complexes 6 and 8 is accompanied by changes in the mitochondrial membrane potential (ΔΨm) of A2780 cells. JC‐10 aggregates inside mitochondria and emits orange fluorescence. Following membrane […], JC‐10 is disaggregated and this in turn reduces the orange fluorescence.
Figure 8 Effect of complexes 6 and 8 on the mitochondrial membrane potential. […] The percentages of cells with depolarised mitochondrial membrane potential were assessed by flow cytometry after staining with JC‐10. The data are expressed as the means±SD of the three individual experiments.
Mitochondrial membrane potential assay: Analysis of the changes of mitochondrial potential in A2780 cells after exposure to complexes 6 and 8 was carried out using the JC‐10 mitochondrial membrane potential assay kit (abcam®) according to the manufacturer's instructions. Briefly, 1.0×10^6 cells per well were seeded in a 6‐well plate and incubated for 24 at 37 °C and a 5 % CO2 humidified atmosphere. […] Supernatants were removed by suction, and each well was washed with PBS before detaching the cells using trypsin. Staining of the samples was done in tubes protected from light, incubating for 30 min in the dark at room temperature. Samples were immediately analysed on a BD Accuri C6 Plus System Flow Cytometer, reading the reduction of fluorescence in the FL2 channel.

[3] = test system: A2780cisR cisplatin-resistant ovarian cancer cells; experiment: 24-hour MTT chemosensitivity assay with 72-hour recovery, A2780cisR; format: cell-based, human; details: for IC50: 24 h exposure, 72 h recovery, MTT, read-out: IC50 values ±SD, A2780cisR; for Selectivity index (SI), A2780cisR: mean IC50 PNT2 / mean IC50 A2780cisR
Protocol: as §1, §2, §3

[4] = test system: PNT2 non-cancerous human prostate cells; experiment: 24-hour MTT chemosensitivity assay with 72-hour recovery, PNT2; format: cell-based; details: 24 h exposure, 72 h recovery, MTT; read-out: IC50 values ±SD, PNT2
Protocol: as §1, §2, §3

[5] = test system: A2780 cells; experiment: Cell viability with N-acetylcysteine (MTT), A2780; format: cell-based, human; details: A2780, NAC 5 mM 30 min before complexes at IC50
Protocol: (§4) Cell viability with N ‐acetylcysteine: Cells were seeded in 96‐well plates at a concentration of 7.5×10^3 cells per well and the plates were incubated for 24 h at 37 °C and a 5 % CO2 humidified atmosphere prior to drug exposure. Complexes were dissolved in either DMSO or PBS to provide stock solutions which were further diluted with media to provide a range of final concentrations. Solution of N‐acetylcysteine (NAC) in media was also prepared. […] Cells were incubated for 24 h at 37 °C and a 5 % CO2 humidified atmosphere. 3‐(4,5‐dimethylthiazol‐2‐yl)‐2,5‐diphenyltetrazolium bromide (MTT) (20 μL, 2.5 mg/mL) was added to each well and plates were incubated for 2 h. All solutions were then removed and 100 μL of DMSO was added to each well in order to dissolve the purple formazan crystals. A Thermo Scientific Multiskan EX microplate photometer was used to measure the absorbance in each well at 570 nm. Cell survival was determined as the absorbance of treated cells divided by the absorbance of controls and expressed as a percentage.

[6] = test system: A2780cisR cells; experiment: Cell viability with N-acetylcysteine (MTT), A2780cisR; format: cell-based, human; details: NAC 5 mM 30 min before complexes at IC50
Protocol: as §4

[7] = test system: A2780 ovarian cancer cells; experiment: 24-hour MTT chemosensitivity assay with 72-hour recovery, A2780; format: cell-based, human; details: for IC50: 24 h exposure, 72 h recovery, MTT, read-out: IC50 values ±SD, A2780; for Selectivity index (SI), A2780: mean IC50 PNT2 / mean IC50 A2780
Protocol: as §1, §2, §3

## Cc1ccc(C(C)C)cc1.N#CC1=C(C#N)[S][Ru-]([P+](c2ccccc2)(c2ccccc2)c2ccccc2)[S]1 [Complex 8, (η^6‐p‐cymene)(PPh3)Ru(Mnt)]
[1]
  IC50: 5.7 ± 0.8 µM
  Selectivity index (SI), H460: 0.42
[2]; Experiment 1
  % cell population with high orange fluorescence: 81.9%
  % cell population with low orange fluorescence: 18.1%
[2]; Experiment 2
  % cell population with high orange fluorescence: 82.5%
  % cell population with low orange fluorescence: 17.5%
[2]; Experiment 3
  % cell population with high orange fluorescence: 80.0%
  % cell population with low orange fluorescence: 20.0%
[2]; Summary, mean values ± SD
  % cell population with high orange fluorescence: 81.5 ± 1.3%
  % cell population with low orange fluorescence: 18.5 ± 1.3%
[3]
  IC50: 0.98 ± 0.06 µM
  Selectivity index (SI), A2780cisR: 2.45
[4]
  IC50: 2.4 ± 0.2 µM
[5]
  Cell viability after pre-treatment with NAC: increase of the cell viability
[6]
  Cell viability after pre-treatment with NAC: increase of the cell viability
[7]
  IC50: 0.96 ± 0.04 µM
  Selectivity index (SI), A2780: 2.50

## (η^6‐p‐cymene)(TPPTS)Ru(Mnt) [Complex 6]
[1]
  IC50: 2 ± 0.2 µM
  Selectivity index (SI), H460: 0.80
[2]; Experiment 1
  % cell population with high orange fluorescence: 60.4%
  % cell population with low orange fluorescence: 39.6%
[2]; Experiment 2
  % cell population with high orange fluorescence: 55.5%
  % cell population with low orange fluorescence: 44.5%
[2]; Experiment 3
  % cell population with high orange fluorescence: 62.7%
  % cell population with low orange fluorescence: 37.3%
[2]; Summary, mean values ± SD
  % cell population with high orange fluorescence: 59.5 ± 3.7%
  % cell population with low orange fluorescence: 40.5 ± 3.7%
[3]
  IC50: 1.3 ± 0.01 µM
  Selectivity index (SI), A2780cisR: 1.23
[3]; IC50 A2780cisR / IC50 A2780
  Selectivity factor (cross-resistance, resistance factor RF): 2.2
[4]
  IC50: 1.6 ± 0.3 µM
[5]
  Cell viability after pre-treatment with NAC: increase of the cell viability
[6]
  Cell viability after pre-treatment with NAC: increase of the cell viability
[7]
  IC50: 0.6 ± 0.07 µM
  Selectivity index (SI), A2780: 2.67
